Reference: publication PMC3942006, “Ruthenium-Nitrosyl Complexes with Glycine, L-Alanine, L-Valine, L-Proline, D-Proline, L-Serine, L-Threonine, and L-Tyrosine: Synthesis, X-ray Diffraction Structures, Spectroscopic and Electrochemical Properties, and Antiproliferative Activity” (Inorganic Chemistry, 2014)

How the values were obtained:
[1] = tested on: A549 (human nonsmall cell lung cancer) cells; assay: MTT assay, antiproliferative activity in A549 cells; format: cell-based; conditions: exposure time 96 h, means ± SD
From the text: (§1) CH1 cells (human ovarian carcinoma) were a generous gift from Lloyd R. Kelland, CRC Centre for Cancer Therapeutics, Institute of Cancer Research, Sutton, UK. SW480 (human adenocarcinoma of the colon) and A549 (human nonsmall cell lung cancer) cells were kindly provided by Brigitte Marian (Institute of Cancer Research, Department of Medicine I, Medical University of Vienna, Austria). All cell culture media and reagents were purchased from Sigma-Aldrich Austria and plastic ware from Starlab Germany. Cells were grown in 75 cm^2 culture flasks as adherent monolayer cultures in minimum essential medium (MEM) supplemented with 10% heat-inactivated fetal calf serum, 1 mM sodium pyruvate, 4 mM L-glutamine, and 1% nonessential amino acids (from 100× ready-to-use stock). Cultures were maintained at 310 K in humidified atmosphere containing 95% air and 5% CO2.
(§2) Cytotoxic effects of the test compounds were determined by means of a colorimetric microculture assay [MTT assay; MTT = 3-(4,5-dimethyl-2-thiazolyl)-2,5-diphenyl-2H-tetrazolium bromide] as described previously.[13] Cells were harvested from culture flasks by trypsinization and seeded by using a pipetting system (Biotek Precision XS Microplate Sample Processor) in densities of 1 × 10^3 (CH1), 2 × 10^3 (SW480), and 3 × 10^3 (A549) in 100 μL/well aliquots in 96-well microculture plates. For 24 h, cells were allowed to settle and resume proliferation. […] After 96 h of drug exposure, the medium was replaced with 100 μL/well of a 1:7 MTT/RPMI 1640 mixture (MTT solution, 5 mg/mL of MTT reagent in phosphate-buffered saline; RPMI 1640 medium, supplemented with 10% heat-inactivated fetal bovine serum and 4 mM L-glutamine), and plates were incubated for further 4 h at 310 K. Subsequently, the solution was removed from all wells, and the formazan crystals formed by viable cells were dissolved in 150 μL of DMSO per well. Optical densities at 550 nm were measured with a microplate reader (Biotek ELx808) by using a reference wavelength of 690 nm to correct for unspecific absorption. The quantity of viable cells was expressed relative to untreated controls, and 50% inhibitory concentrations (IC50) were calculated from concentration-effect curves by interpolation. Evaluation is based on means from three independent experiments.

[2] = tested on: CH1 cells (human ovarian carcinoma); assay: MTT assay, antiproliferative activity in CH1 cells; format: cell-based; conditions: for IC50: MTT assay, exposure time 96 h, means ± SD; for more active than the respective osmium analogue: CH1 cells
From the text: as §1, §2

[3] = log D7.4 by shake-flask method, n-octanol/buffered aqueous solution; format: physicochemical; conditions: for log D7.4 in the presence of 0.1 M KCl: n-octanol/0.02 M HEPES pH 7.4, 0.1 M KCl, T = 298.0 K; for log D7.4: n-octanol/0.02 M HEPES pH 7.4, T = 298.0 K
Method: ^1H NMR spectra were recorded on a Bruker Avance III instrument (Ultrashiled Magnet) at 500.13 MHz at room temperature. DMSO-d6 was used as a solvent. Standard pulse programs were applied. ^1H chemical shifts were measured relative to the residual solvent peaks. […] Complex concentration was 1.0 mM. Watergate water suppression program and 4,4-dimethyl-4-silapentane-1-sulfonic acid (DSS) internal standard were used. ATR-IR spectra were measured on a Bruker Vertex spectrometer. D7.4 values were determined by the traditional shake-flask method in n-octanol/buffered aqueous solution at pH 7.4 (N-(2-hydroxyethyl)piperazine-N′-ethanesulfonic acid (HEPES) buffer) and 298.0 ± 0.2 K, as described previously.[25] In the case of the complexes of L-Ala (2) and L-Val (3) the D7.4 values were determined in the presence of 0.1 M KCl as well. Two parallel experiments were performed for each sample. The complexes were dissolved at 0.3 mM in the n-octanol presaturated aqueous solution of the buffer (0.02 M). The aqueous solutions and n-octanol with 1:1 phase ratio were gently mixed with 360° vertical rotation for 3 h to avoid emulsion formation, and the mixtures were centrifuged at 5000 rpm for 3 min by a temperature-controlled centrifuge at 298 K. After separation, UV spectra of the complexes in the aqueous phase were compared to those of the original aqueous solutions, and D7.4 values were calculated as the mean of [absorbance (original solution)/absorbance (aqueous phase after separation) – 1] obtained in the region of λ ≈ (250–290 nm). Circular dichroism (CD) and UV–vis spectra under physiological conditions (0.02 M phosphate buffer, pH 7.40 with 0.1 M KCl) were recorded on a Jasco J-815 spectrometer in an optical cell of 2 cm path length (l) in the wavelength range from 220 to 600 nm. The analytical concentration for the CD measurement of the complexes was 400 μM in aqueous solution. CD data are given as the differences in molar absorptivities between left and right circularly polarized light, based on the concentration of the […] (Δε = ΔA/l/ccomplex). The concentrations for the UV–vis measurements amounted to 403 (1), 401 (4), 401 (5), 400 (8), 399 (3), 401 (2), 403 (7), and 401 (6) μM.
The log D7.4 values of the complexes were determined by the traditional shake-flask method in n-octanol/buffered aqueous solution at pH 7.4 by analysis of the UV–vis spectra of the aqueous phases before and after separation (Supporting Information, Figure S10 and Table 5).

[4] = tested on: SW480 (human adenocarcinoma of the colon) cells; assay: MTT assay, antiproliferative activity in SW480 cells; format: cell-based; conditions: for IC50: MTT assay, exposure time 96 h, means ± SD; for more active than the respective osmium analogue: SW480 cells
From the text: as §1, §2

[5] = Stability in aqueous solution by UV-vis spectroscopy; format: physicochemical; conditions: pH 7.40, 0.02 M HEPES, 0.25 mM, 298.0 K, in the presence of 0.1 M KCl or in its absence
[6] = Aqueous stability by ESI mass spectrometry; format: physicochemical; conditions: 50 μM in water, 310 K, over 24 h
Method: (§3) The stability of four compounds, namely 1, 4, 5, and 8, in aqueous solution and in the presence of 4 equiv of sodium ascorbate was investigated using an AmaZon SL ESI ion trap mass spectrometer (Bruker Daltonics GmbH, Bremen, Germany). For this purpose, the compounds were diluted from 400 μM stock solution (1% DMSO) to 50 μM in water and in the presence of 200 μM sodium ascorbate. The solutions were incubated at 310 K in the dark, and samples were measured after 0.5, 1, 2, 6, and 24 h after a second dilution step to 5 μM of the metal compound. The samples were introduced by direct infusion into the mass spectrometer at 280 μL/h, and mass spectra were recorded over 0.5 min and averaged. Typical experimental conditions were as follows: high voltage (HV) capillary ±4.5 kV, dry temp 180 °C, nebulizer 8 psi, dry gas 6 L/min, radio frequency (RF) level 77%, trap drive 57.6, average accumulation time 25 ms (negative ion mode) and 120 μs (positive ion mode). […]
(§4) The aqueous stability of compounds 1, 4, 5, and 8 was also confirmed by ESI mass spectrometry. […] Dissolution of 1 in D2O leads to the change of the labile −NH2 to −ND2, and the resulting compound [RuCl3(N,N-d2-Gly−H)(NO)] ^– (m/z 314.74 compared to m/z 312.72 of 1) was analyzed. […] Note that related ruthenium-nitrosyl complexes with azole heterocycles reacted quantitatively with sodium ascorbate within several hours.[15]

[7] = Co-incubation with sodium ascorbate followed by ESI mass spectrometry; format: physicochemical; conditions: 4 equiv sodium ascorbate (200 μM), 310 K, over 24 h
Method: as §3, §4

[8] = Hydrolytic stability by 1H NMR spectroscopy; format: physicochemical; conditions: 10% D2O/H2O, pH = 5.86, compared with pH 7.4 buffer
Method: ^1H NMR spectra were recorded on a Bruker Avance III instrument (Ultrashiled Magnet) at 500.13 MHz at room temperature. DMSO-d6 was used as a solvent. Standard pulse programs were applied. ^1H chemical shifts were measured relative to the residual solvent peaks. […] Complex concentration was 1.0 mM. Watergate water suppression program and 4,4-dimethyl-4-silapentane-1-sulfonic acid (DSS) internal standard were used. ATR-IR spectra were measured on a Bruker Vertex spectrometer. D7.4 values were determined by the traditional shake-flask method in n-octanol/buffered aqueous solution at pH 7.4 (N-(2-hydroxyethyl)piperazine-N′-ethanesulfonic acid (HEPES) buffer) and 298.0 ± 0.2 K, as described previously.[25] In the case of the complexes of L-Ala (2) and L-Val (3) the D7.4 values were determined in the presence of 0.1 M KCl as well. […] The aqueous solutions and n-octanol with 1:1 phase ratio were gently mixed with 360° vertical rotation for 3 h to avoid emulsion formation, and the mixtures were centrifuged at 5000 rpm for 3 min by a temperature-controlled centrifuge at 298 K. After separation, UV spectra of the complexes in the aqueous phase were compared to those of the original aqueous solutions, and D7.4 values were calculated as the mean of [absorbance (original solution)/absorbance (aqueous phase after separation) – 1] obtained in the region of λ ≈ (250–290 nm). […]

Row | Compound | IC50 [1] [µM] | IC50 [2] [µM] | log D7.4 in the presence of 0.1 M KCl [3] | log D7.4 [3] | IC50 [4] [µM] | hydrolysis over 24 h (absorbance at 250 nm) [5] | aqueous stability, species in negative ion mode ESI mass spectra [6] | ligand release on incubation with sodium ascorbate [7] | hydrolytic stability: 1H NMR in nonbuffered medium [8] | more active than the respective osmium analogue [2] [fold] | more active than the respective osmium analogue [4] [fold]
1 | CCCC[N+](CCCC)(CCCC)CCCC.C[C@@H]1[NH2+][Ru-2]([Cl])([Cl])([Cl])([N]=O)[O]C1=O [complex 2, (nBu4N)[RuCl3(L-Ala–H)(NO)]] | > 320 | 12 ± 2 | –1.47 ± 0.11 | –1.63 ± 0.08 | 47 ± 3 |  |  |  |  |  | 
2 | CCCC[N+](CCCC)(CCCC)CCCC.O=[N][Ru-2]1([Cl])([Cl])([Cl])[NH2+][C@@H](CO)C(=O)[O]1 [complex 6, (nBu4N)[RuCl3(L-Ser–H)(NO)]] | > 320 | 13 ± 2 |  | –1.77 ± 0.12 | 63 ± 10 |  |  |  |  |  | 
3 | CCCC[N+](CCCC)(CCCC)CCCC.C[C@@H](O)[C@@H]1[NH2+][Ru-2]([Cl])([Cl])([Cl])([N]=O)[O]C1=O [complex 7, (nBu4N)[RuCl3(L-Thr–H)(NO)]] | > 320 | 23 ± 2 |  | –1.75 ± 0.02 | 71 ± 15 |  |  |  |  |  | 
4 | CCCC[N+](CCCC)(CCCC)CCCC.O=[N][Ru-2]1([Cl])([Cl])([Cl])[NH2+][C@@H](Cc2ccc(O)cc2)C(=O)[O]1 [complex 8, (nBu4N)[RuCl3(L-Tyr–H)(NO)]] | > 320 | 17 ± 3 |  |  | 38 ± 12 | negligible | [RuCl3(AA–H)NO]^− as the major species | did not induce ligand release | showed the same NMR spectra |  | 
5 | (nBu4N)[RuCl3(D-Pro–H)(NO)] [complex 5] |  |  |  |  |  |  |  |  |  | 11 | 14
6 | (nBu4N)[RuCl3(L-Pro–H)(NO)] [complex 4] |  |  |  |  |  |  |  |  |  | 5.7 | 4.4
7 | (nBu4N)[RuCl3(L-Val–H)(NO)] [complex 3] | > 320 | 27 ± 3 | –1.31 ± 0.07 | –1.13 ± 0.02 | 53 ± 2 |  |  |  |  |  | 
